US5308869A, “Substituted amidines having high binding to the sigma receptor and the use thereof” (priority 1992, dated 1994)

What was measured:
sigma binding site = settings: cited from earlier work
sigma receptor [1] = assay: Sigma receptor binding assay, [^3 H]DTG, guinea pig brain membrane homogenates; settings: guinea pig brain membranes; for Binding to / selectivity at [^3 H]DTG-labelled sigma sites: drug specificity profile; for IC50: read-out: IC50 vs [^3 H]DTG (MEAN), […] [^3 H]DTG, pH 7.4, 90 minutes at room temperature, mean with SEM and n in own columns
rhesus monkeys = settings: introduction of foreign objects into cages; cited from earlier work
[2] = humans; cited from earlier work
[3] = system: dopamine-stimulated production of CAMP; settings: homogenates of rat striatum and olfactory tubercle; cited from earlier work
[4] = system: apomorphine-induced mesolimbic behaviors; settings: without altering intensity of stereotypic behaviors; cited from earlier work
dopamine synthesis = settings: cited from earlier work
sigma receptor [5] = settings: cited from earlier work
[6] = in vivo; cited from earlier work
mu receptors = settings: cited from earlier work
kappa receptors = settings: cited from earlier work
sigma sites = settings: rat brain membrane; cited from earlier work
cholinergic sites = settings: cited from earlier work
rats = settings: rat, in vivo; cited from earlier work
[7] = system: D1 subclass of dopamine receptors; settings: cited from earlier work
[8] = system: D2 class of striatal dopamine receptors; settings: rat striatum; cited from earlier work
adrenergic sites = settings: cited from earlier work
sigma receptor [9] = settings: cited from earlier work; remark: listed apart in the source
muscarinic sites = settings: cited from earlier work
histaminergic sites = settings: cited from earlier work
[10] = system: [^3 H]spiperone-labeled D2 site in striatum; settings: chronic administration (20 days) to rats; cited from earlier work
[11] = system: dopamine-stimulated CAMP production; settings: in vitro; cited from earlier work

## C=CCN1CCC2(C)c3cc(O)ccc3CC1C2C (single isomer, unassigned; (+)) [(+)SKF-10,047, N-allyl-normetazocine]
Sigma binding site
  Drug selectivity profile of sigma binding site: selectively label a sigma receptor
Sigma receptor [1]
  Binding to / selectivity at [^3 H]DTG-labelled sigma sites: stereoselectivity for dextrorotatory isomers

## CCc1cccc(N=C(C)Nc2cccc(CC)c2)c1 [N,N'-bis(3-ethylphenyl)acetamidine, N,N'-Bis(3-ethylphenyl)acetamidine]
Sigma receptor [1]
  IC50: 0.013 µM

## O=C1CC2(CCCC2)CC(=O)N1CCCCN1CCN(c2ncccn2)CC1 [Buspirone]
Rhesus monkeys
  Efficacy in taming of aggressive response: efficacy in a predictive animal model

## CC(C)=CCN1CCC2(C)c3cc(O)ccc3CC1C2C (single isomer, unassigned; (+)) [(+)pentazocine]
Sigma receptor [1]
  Binding to / selectivity at [^3 H]DTG-labelled sigma sites: stereoselectivity for dextrorotatory isomers

## CC(=NC1CCCCC1)NC12CC3CC(CC(C3)C1)C2 [N-(Adamantan-1-yl)-N'-(cyclohexyl)acetamidine]
Sigma receptor [1]
  IC50: 0.0719 µM

## CCc1cccc(N=C(C)Nc2cccc3ccccc23)c1 [N-(1-naphthyl)-N'-(m-ethylphenyl)-acetamidine]
Sigma receptor [1]
  IC50: 2.41 µM

## CN=C(C)Nc1ccccc1C [N-(o-tolyl)-N'-methylacetamidine]
Sigma receptor [1]
  IC50: 0.354 µM

## CC(=NC12CC3CC(CC(C3)C1)C2)NC12CC3CC(CC(C3)C1)C2 [N,N'-bis(adamantan-1-yl)acetamidine, N,N'-Bis(adamantan-1-yl)acetamidine]
Sigma receptor [1]
  IC50: 0.0157 µM

## CC(=Nc1cccc2ccccc12)Nc1cccc2ccccc12 [N,N'-bis(1-naphthyl)acetamidine]
Sigma receptor [1]
  IC50: 0.169 µM

## CCc1cccc(N=C(C)Nc2cccc3ccccc23)c1 [N-(1-naphthyl)-N'-(3-ethylphenyl)-acetamidine]
Sigma receptor [1]
  IC50: 0.123 µM

## C=CCN1CC[C@]23c4c5ccc(O)c4O[C@H]2C(=O)CC[C@@]3(O)[C@H]1C5 [naloxone]
Sigma binding site
  Drug selectivity profile of sigma binding site: insensitivity
Sigma receptor [1]
  Binding to / selectivity at [^3 H]DTG-labelled sigma sites: insensitivity

## CC(=Nc1ccc(Br)cc1C)Nc1ccc(Br)cc1C [N,N'-Bis(4-bromo-2-tolyl)acetamidine]
Sigma receptor [1]
  IC50: 0.0258 µM

## C[C@@H]1CN(CCCn2c3ccccc3c3ccccc32)C[C@H](C)N1.Cl.Cl [rimcazole, cis-9-[3-(3,5-dimethyl-1-piperazinyl)-propyl]carbazole dihydrochloride]
[2]
  Extrapyramidal effects: without extrapyramidal effects
[3]
  Effect on dopamine-stimulated production of CAMP: does not affect dopamine-stimulated production of CAMP
[4]
  Antagonism of apomorphine-induced mesolimbic behaviors: antagonize apomorphine-induced mesolimbic behaviors selectively without altering the intensity of stereotypic behaviors
Dopamine synthesis
  Acceleration of rate of dopamine synthesis: does not accelerate the rate of dopamine synthesis
Sigma receptor [5]
  Inhibition of specific binding of dextrorotatory tritiated SKF-10,047: competitively inhibit the specific binding

## C=CCN1CCC2(C)c3cc(O)ccc3CC1C2C (single isomer, unassigned; (+)) [(+)[^3 H]SKF-10,047]
Sigma binding site
  Sigma site selectivity of radioligand: not selective for the sigma site

## NCCc1ccc(O)c(O)c1 [dopamine]
Sigma binding site
  Drug selectivity profile of sigma binding site: insensitivity
Sigma receptor [1]
  Binding to / selectivity at [^3 H]DTG-labelled sigma sites: insensitivity

## CCC12CCN(CC3CC3)C(C(=O)c3ccc(O)cc31)C2C (single isomer, unassigned; (+)) [(+)[^3 H]-ethylketazocine]
Sigma binding site
  Sigma site selectivity of radioligand: not selective for the sigma site

## C[C@@H]1CN(CCCn2c3ccccc3c3ccccc32)C[C@H](C)N1 [9-[3-(3,5-cis-dimethylpiperazino)-propyl]carbazole]
[6]
  Anxiolytic activity: anxiolytic activity

## [3H]c1ccc(NC(=N)Nc2ccc([3H])cc2C)c(C)c1 [[^3 H]DTG, N,N'-di-(4-[^3 H]-2-methylphenyl)-guanidine]
Sigma receptor [1]
  Binding to / selectivity at [^3 H]DTG-labelled sigma sites: binds specifically and with high affinity to a single class of binding sites

## O=C(CCCN1CCC(O)(c2ccc(Cl)cc2)CC1)c1ccc(F)cc1 [haloperidol]
Sigma binding site
  Drug selectivity profile of sigma binding site: high affinity
Sigma receptor [1]
  Binding to / selectivity at [^3 H]DTG-labelled sigma sites: high affinity

## C=CCN1CCC2(C)c3cc(O)ccc3CC1C2C (single isomer, unassigned; (-)) [(-)-SKF-10,047, N-allyl-normetazocine]
Mu receptors
  Binding to mu receptors: labeled the mu and kappa receptors
Kappa receptors
  Binding to kappa receptors: labeled the mu and kappa receptors
Sigma binding site
  Drug selectivity profile of sigma binding site: not the sigma receptors

## CC(=Nc1ccccc1C)Nc1ccccc1C [N,N'-bis(-o-tolyl)acetamidine, N,N'-Bis(o-methylphenyl)acetamidine]
Sigma receptor [1]
  IC50: 0.015 µM

## CC(=Nc1ccccc1C(C)C)Nc1ccccc1C(C)C [N,N'-bis(2-isopropylphenyl)acetamidine, N,N'-Bis(2-isopropylphenyl)acetamidine]
Sigma receptor [1]
  IC50: 0.0774 µM

## CCc1ccccc1N=C(C)Nc1ccccc1CC [N,N'-bis-(o-ethylphenyl)acetamidine, N,N'-Bis(2-ethylphenyl)acetamidine]
Sigma receptor [1]
  IC50: 0.0369 µM

## CN1CCc2cccc3c2[C@H]1Cc1ccc(O)c(O)c1-3 [apomorphine]
Sigma binding site
  Drug selectivity profile of sigma binding site: insensitivity
Sigma receptor [1]
  Binding to / selectivity at [^3 H]DTG-labelled sigma sites: insensitivity

## CCCN1CCCC(c2cccc(O)c2)C1 (single isomer, unassigned; (+)) [(+)[^3 H]3-PPP, (+)[^3 H]3-(3-hydroxyphenyl)-N-(1-propyl)-piperidine]
Sigma sites
  Selectivity for sigma sites: selective for sigma sites
Sigma receptor [1]
  Binding to / selectivity at [^3 H]DTG-labelled sigma sites: virtually identical receptor binding characteristics and drug selectivity profiles

## CC(=Nc1ccccc1C)NC12CC3CC(CC(C3)C1)C2 [N-(Adamantan-1-yl)-N'-(o-methylphenyl)acetamidine]
Sigma receptor [1]
  IC50: 0.00727 µM

## CC(=NC1CCCCC1)Nc1ccccc1C [N-(o-Methylphenyl)-N'-(cyclohexyl)acetamidine]
Sigma receptor [1]
  IC50: 0.00901 µM

## CC(=Nc1ccccc1C)NC1CC2CCC1C2 (centres unmarked) [N-Exonorbornyl-N'-(2-methylphenyl)acetamidine]
Sigma receptor [1]
  IC50: 0.00932 µM

## OC(CCCN1CCN(c2ncc(F)cn2)CC1)c1ccc(F)cc1 (centres unmarked) [BMY 14802]
Cholinergic sites
  Binding to cholinergic sites: does not bind
rats
  Catalepsy in rats: did not cause catalepsy in rats
[7]
  Interaction with D1 subclass of dopamine receptors: does not appear to interact
[7]; in vitro
  Inhibition of [^3 H]SCH 23390 binding: does not inhibit
[8]
  Inhibition of [^3 H]spiperone binding to D2 receptors: does not inhibit the binding
Adrenergic sites
  Binding to adrenergic sites: does not bind
Sigma receptor [9]
  Sigma receptor binding affinity: relatively high affinity
Sigma receptor [9]; dextrorotatory more potent than levorotatory enantiomer
  Potency at inhibiting sigma binding, dextrorotatory vs levorotatory enantiomer: 10 times
Muscarinic sites
  Binding to muscarinic sites: does not bind
Histaminergic sites
  Binding to histaminergic sites: does not bind
[10]
  Maximal density of [^3 H]spiperone-labeled D2 site in striatum: did not increase the maximal density
[11]
  Inhibition of dopamine-stimulated CAMP production: does not inhibit dopamine-stimulated CAMP production

## CC(=Nc1ccccc1C(C)C)Nc1cccc2ccccc12 [N-(1-naphthyl)-N'-(2-isopropylphenyl)-acetamidine]
Sigma receptor [1]
  IC50: 0.118 µM
